Test results: patent publication USRE46792E1, “Oxazole compound and pharmaceutical composition” (Otsuka Pharmaceutical Co., Ltd., priority 2005, dated 2018)

Target: human PDE4D3 (PDE4D) (Homo sapiens (Human), UniProt Q08499)
Test: Phosphodiesterase (PDE)4 inhibitory activity evaluation test ([3H]cAMP hydrolysis by PDE4D enzyme solution)
Type: biochemical
Settings: recombinant human PDE4D3 expressed in COS-7 cells; [3H]cAMP substrate; 10 min at 30° C.; 2% DMSO
Source text: Phosphodiesterase (PDE)4 Inhibitory Activity Evaluation Test
(1) Large Scale Plasmid Preparation
Plasmid containing genes (HPDE4D) coding for human PDE4D3 cDNA (stored in Otsuka America Pharmaceutical, Inc., Maryland Research Laboratories) was transformed in E. coli, cultured on a large scale, and purified using an EndoFree™ Plasmid Maxi Kit (Qiagen).
(2) Abundant Expression and Purification of PDE4D
COS-7 cells derived from African green monkey kidneys were passage cultured in D-MEM media containing 100 units/ml penicillin, 100 μg/ml streptomycin, and 10% FBS. The cells were transfected with the plasmid prepared in (1) above using Lipofectamine™ 2000 (hereinafter referred to as “LF2000”, Invitrogen), following the manufacturer's protocol. The COS-7 cells were inoculated in a 10 cm culture dish on the previous day so as to be 90% confluent on the day of transfection. Culture dishes each containing a plasmid solution (solution A) in which 24 μg of plasmid was diluted in 1.5 ml Opti-MEM I Reduced Serum Medium (Invitrogen) and an LF2000 solution (solution B) in which 60 μl of LF2000 was diluted in 1.5 ml Opti-MEM I Reduced Serum Medium were separately allowed to stand for 5 minutes at room temperature. Solutions A and B were then mixed and the mixture was allowed to stand for 20 minutes at room temperature. The mixture was added to the cultured cells, and incubated at 37° C. (5% CO2) overnight. On the following day, the medium was replaced, and the mixture was further incubated overnight to harvest the cells in the following manner. The cells were washed with PBS (Sigma) once, and 10 ml of a Trypsin-EDTA solution (Sigma) was added to each culture dish. After the solution was distributed to each of the culture dishes, the cells were detached, and the dishes were allowed to stand for about 5 minutes at 37° C. The detached cells from the dishes were suspended in media, collected into centrifuge tubes, and centrifuged at 1200 rpm for 5 minutes at 4° C., and supernatants were removed. The cells were further washed with PBS, and stored at −80° C. KHEM buffer (100 mM Hepes, 50 mM KCl, 10 mM EGTA, 1.92 mM MgCl2, pH 7.4) containing 1 mM DTT, 1 μg/ml antipain, 1 μg/ml aprotinin, 1 μg/ml leupeptin, 1 μg/ml pepstatin A, 157 μg/ml benzamidine, and 120 μg/ml Pefabloc SC was added to the stored cells, and the contents were moved to a glass homogenizer to be homogenized on ice. The cell suspension was centrifuged at 1000 rpm for 5 minutes at 4° C., and the supernatant was further centrifuged at 14000 rpm for one hour. After centrifugation, the supernatant was dispensed into new tubes as PDE4D enzyme solutions, and stored in a deep freezer.
(3) Determination on Dilution Ratio of PDE4D Enzyme Solutions
The PDE4D enzyme solutions prepared in (2) above were dissolved in 20 mM Tris-HCl solution (pH 7.4) to give 10-, 25-, 50-, 100-, 200-, 400-, and 800-fold dilutions of the enzyme solutions. PDE4D activities were measured according to (4) below. The percentage of catalyzed cAMP to total cAMP was calculated, and such a dilution, in which the percentage was between 10% and 30%, was adopted in the inhibitory study below.
(4) Measurement of PDE4D Inhibitory Activity
Necessary amounts of test compounds were weighed, and 100% dimethylsulfoxide (DMSO) was added thereto to adjust the concentration to 10 mM. The solutions were stored in a freezer as stock solutions of each test compound. After being thawed when required, the solutions were diluted 20-fold with 100% DMSO to give a 500 μM concentration. Further, 10-fold serial dilutions were made with 100% DMSO to prepare test compounds of different concentrations. 2 μl of solutions containing one of each of the test compound were separately added into 1.2 ml tubes in which 23 μl of 20 mM Tris-HCl (pH 7.4) had been placed beforehand. […]

Sequence of human PDE4D3 (PDE4D) (Q08499 other isoform, or with tags, fused parts or gaps): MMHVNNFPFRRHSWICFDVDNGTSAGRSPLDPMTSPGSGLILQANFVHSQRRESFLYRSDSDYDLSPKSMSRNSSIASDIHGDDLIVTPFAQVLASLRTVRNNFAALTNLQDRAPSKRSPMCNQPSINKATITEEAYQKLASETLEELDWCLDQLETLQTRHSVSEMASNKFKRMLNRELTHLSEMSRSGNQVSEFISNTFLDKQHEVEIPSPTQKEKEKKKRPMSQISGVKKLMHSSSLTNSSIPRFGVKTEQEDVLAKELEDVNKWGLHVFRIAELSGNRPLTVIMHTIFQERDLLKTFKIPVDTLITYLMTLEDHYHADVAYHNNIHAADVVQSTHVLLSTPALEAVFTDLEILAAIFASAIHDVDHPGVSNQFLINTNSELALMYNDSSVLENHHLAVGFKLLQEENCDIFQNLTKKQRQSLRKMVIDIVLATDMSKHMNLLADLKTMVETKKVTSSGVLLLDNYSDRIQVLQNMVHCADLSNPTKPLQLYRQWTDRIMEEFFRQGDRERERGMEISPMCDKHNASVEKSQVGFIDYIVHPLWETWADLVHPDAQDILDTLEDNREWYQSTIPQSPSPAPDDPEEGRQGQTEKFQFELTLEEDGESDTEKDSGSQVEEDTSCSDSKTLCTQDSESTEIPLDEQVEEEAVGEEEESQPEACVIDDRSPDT

CCC(CC)Oc1cc(-c2nc(CCC(=O)c3ncccc3C)co2)ccc1OC [Example 312, 3-{2-[3-(1-ethylpropoxy)-4-methoxyphenyl]oxazol-4-yl}-1-(3-methylpyridin-2-yl)propan-1-one]
IC50: < 50 nM

CCOc1ccccc1C(=O)CCc1coc(-c2ccc(OC)c(OCC(F)F)c2)n1 [Example 314, 3-{2-[3-(2,2-difluoroethoxy)-4-methoxyphenyl]oxazol-4-yl}-1-(2-ethoxyphenyl)propan-1-one]
IC50: < 50 nM

CCOc1ccccc1C(=O)CCc1coc(-c2ccc(OC)c(OCCF)c2)n1 [Example 315, 1-(2-ethoxyphenyl)-3-{2-[3-(2-fluoroethoxy)-4-methoxyphenyl]oxazol-4-yl}propan-1-one]
IC50: < 50 nM

CCOc1ccc(-c2nc(CCC(=O)c3ncccc3C)co2)cc1OCC(F)F [Example 318, 3-{2-[3-(2,2-difluoroethoxy)-4-ethoxyphenyl]oxazol-4-yl}-1-(3-methylpyridin-2-yl)-propan-1-one]
IC50: < 50 nM

CCC(CC)Oc1cc(-c2nc(CNC(=O)c3ncccc3C)co2)ccc1OC [Example 324, N-{2-[3-(1-ethylpropoxy)-4-methoxyphenyl]oxazol-4-ylmethyl}-3-methylpicolinamide]
IC50: < 50 nM

Cc1cccnc1C(=O)CCc1coc(-c2ccc(OC(F)F)c(OCC3CC3)c2)n1 [Example 328, 3-[2-(3-cyclopropylmethoxy-4-difluoromethoxyphenyl)oxazol-4-yl]-1-(3-methylpyridin-2-yl)propan-1-one]
IC50: < 50 nM

CCCOc1cc(-c2nc(CCC(=O)c3ncccc3C)co2)ccc1OC(F)F [Example 329, 3-[2-(4-difluoromethoxy-3-propoxyphenyl)oxazol-4-yl]-1-(3-methylpyridin-2-yl)propan-1-one]
IC50: < 50 nM

C=CCOc1cc(-c2nc(CCC(=O)c3ncccc3C)co2)ccc1OC(F)F [Example 330, 3-[2-(3-allyloxy-4-difluoromethoxyphenyl)oxazol-4-yl]-1-(3-methylpyridin-2-yl)propan-1-one]
IC50: < 50 nM

C=CCCOc1cc(-c2nc(CCC(=O)c3ncccc3C)co2)ccc1OC(F)F [Example 331, 3-[2-(3-but-3-enyloxy-4-difluoromethoxyphenyl)-oxazol-4-yl]-1-(3-methylpyridin-2-yl)propan-1-one]
IC50: < 50 nM

Cc1cccnc1C(=O)CCc1coc(-c2ccc(OC(F)F)c(OC(C)C)c2)n1 [Example 332, 3-[2-(4-difluoromethoxy-3-isopropoxyphenyl)oxazol-4-yl]-1-(3-methylpyridin-2-yl)propan-1-one]
IC50: < 50 nM

CCOc1cc(-c2nc(CCC(=O)c3ncccc3C)co2)ccc1OC(F)F [Example 333, 3-[2-(4-difluoromethoxy-3-ethoxyphenyl)oxazol-4-yl]-1-(3-methylpyridin-2-yl)propan-1-one]
IC50: < 50 nM

CCOc1cc(-c2nc(CCC(=O)c3ccccc3OCC)co2)ccc1OC(F)F [Example 334, 3-[2-(4-difluoromethoxy-3-ethoxyphenyl)oxazol-4-yl]-1-(2-ethoxyphenyl)propan-1-one]
IC50: < 50 nM

C=CCOc1cc(-c2nc(CCC(=O)c3ccccc3OCC)co2)ccc1OC(F)F [Example 335, 3-[2-(3-allyloxy-4-difluoromethoxyphenyl)oxazol-4-yl]-1-(2-ethoxyphenyl)propan-1-one]
IC50: < 50 nM

CCOc1ccccc1C(=O)CCc1coc(-c2ccc(OC(F)F)c(OCC3CC3)c2)n1 [Example 336, 3-[2-(3-cyclopropylmethoxy-4-difluoromethoxyphenyl)oxazol-4-yl]-1-(2-ethoxyphenyl)propan-1-one]
IC50: < 50 nM

C=CCCOc1cc(-c2nc(CCC(=O)c3ccccc3OCC)co2)ccc1OC(F)F [Example 337, 3-[2-(3-but-3-enyloxy-4-difluoromethoxyphenyl)oxazol-4-yl]-1-(2-ethoxyphenyl)propan-1-one]
IC50: < 50 nM

CCOc1cc(-c2nc(CNC(=O)c3ncccc3C)co2)ccc1OC(F)F [Example 338, N-[2-(4-difluoromethoxy-3-ethoxyphenyl)-oxazol-4-ylmethyl]-3-methylpicolinamide]
IC50: < 50 nM

C=CCOc1cc(-c2nc(CNC(=O)c3ncccc3C)co2)ccc1OC(F)F [Example 339, N-[2-(3-allyloxy-4-difluoromethoxyphenyl)oxazol-4-ylmethyl]-3-methylpicolinamide]
IC50: < 50 nM

CCCOc1cc(-c2nc(CNC(=O)c3ncccc3C)co2)ccc1OC(F)F [Example 340, N-[2-(4-difluoromethoxy-3-propoxyphenyl)oxazol-4-ylmethyl]-3-methylpicolinamide]
IC50: < 50 nM

Cc1cccnc1C(=O)NCc1coc(-c2ccc(OC(F)F)c(OC(C)C)c2)n1 [Example 341, N-[2-(4-difluoromethoxy-3-isopropoxyphenyl)oxazol-4-ylmethyl]-3-methylpicolinamide]
IC50: < 50 nM

CCC(CC)Oc1cc(-c2nc(CNC(=O)c3ncccc3C)co2)ccc1OC(F)F [Example 342, N-{2-[4-difluoromethoxy-3-(1-ethylpropoxy)phenyl]oxazol-4-ylmethyl}-3-methylpicolinamide]
IC50: < 50 nM

C=CCCOc1cc(-c2nc(CNC(=O)c3ncccc3C)co2)ccc1OC(F)F [Example 343, N-[2-(3-but-3-enyloxy-4-difluoromethoxyphenyl)oxazol-4-ylmethyl]-3-methylpicolinamide]
IC50: < 50 nM

Cc1cccnc1C(=O)NCc1coc(-c2ccc(OC(F)F)c(OCC(C)C)c2)n1 [Example 344, N-[2-(4-difluoromethoxy-3-isobutoxyphenyl)oxazol-4-ylmethyl]-3-methylpicolinamide]
IC50: < 50 nM

Cc1cccnc1C(=O)NCc1coc(-c2ccc(OC(F)F)c(OCC3CCC3)c2)n1 [Example 345, N-[2-(3-cyclobutylmethoxy-4-difluoromethoxyphenyl)oxazol-4-ylmethyl]-3-methyl picolinamide]
IC50: < 50 nM

CCOc1ccccc1C(=O)NCc1coc(-c2ccc(OC(F)F)c(OCC(C)C)c2)n1 [Example 348, N-[2-(4-difluoromethoxy-3-isobutoxyphenyl)oxazol-4-ylmethyl]-2-ethoxybenzamide]
IC50: < 50 nM

CCOc1cc(-c2nc(CNC(=O)c3ccccc3OCC)co2)ccc1OC(F)F [Example 349, N-[2-(4-difluoromethoxy-3-ethoxyphenyl)oxazol-4-ylmethyl]-2-ethoxybenzamide]
IC50: < 50 nM

CCCOc1cc(-c2nc(CNC(=O)c3ccccc3OCC)co2)ccc1OC(F)F [Example 350, N-[2-(4-difluoromethoxy-3-propoxyphenyl)oxazol-4-ylmethyl]-2-ethoxybenzamide]
IC50: < 50 nM

C=CCOc1cc(-c2nc(CNC(=O)c3ccccc3OCC)co2)ccc1OC(F)F [Example 351, N-[2-(3-allyloxy-4-difluoromethoxyphenyl)oxazol-4-ylmethyl]-2-ethoxybenzamide]
IC50: < 50 nM

CCOc1ccccc1C(=O)NCc1coc(-c2ccc(OC(F)F)c(OC(C)C)c2)n1 [Example 352, N-[2-(4-difluoromethoxy-3-isopropoxyphenyl)oxazol-4-ylmethyl]-2-ethoxybenzamide]
IC50: < 50 nM

CCOc1ccccc1C(=O)NCc1coc(-c2ccc(OC(F)F)c(OCC3CC3)c2)n1 [Example 353, N-[2-(3-cyclopropylmethoxy-4-difluoromethoxyphenyl)oxazol-4-ylmethyl]-2-ethoxy benzamide]
IC50: < 50 nM

C=CCCOc1cc(-c2nc(CNC(=O)c3ccccc3OCC)co2)ccc1OC(F)F [Example 354, N-[2-(3-but-3-enyloxy-4-difluoromethoxyphenyl)oxazol-4-ylmethyl]-2-ethoxybenzamide]
IC50: < 50 nM
